According to the NIST ThermoML archive (doi:10.1016/j.jct.2012.10.008):

Assay: xn = mol fraction of the nth substance listed
Details: 101 kPa, Liquid; for viscosity: Falling or rolling sphere viscometry; for mass density: Vibrating tube method

CCCC[NH3+].O=[N+]([O-])[O-] [n-butylammonium nitrate] + CO
Details | mass density, 293.15 K [kg/m3] | mass density, 298.15 K [kg/m3] | mass density, 303.15 K [kg/m3] | mass density, 308.15 K [kg/m3] | mass density, 313.15 K [kg/m3] | viscosity, 293.15 K [mPa·s] | viscosity, 298.15 K [mPa·s] | viscosity, 303.15 K [mPa·s] | viscosity, 308.15 K [mPa·s] | viscosity, 313.15 K [mPa·s]
x1 = 0.0999 | 884.86 | 880.73 | 876.67 | 872.57 | 868.45 | 1.377 | 1.267 | 1.173 | 1.119 | 1.014
x1 = 0.1998 | 944.76 | 940.97 | 937.17 | 933.38 | 929.59 | 2.723 | 2.466 | 2.248 | 2.058 | 1.893
x1 = 0.3012 | 987.04 | 983.43 | 979.82 | 976.23 | 972.64 | 4.923 | 4.382 | 3.934 | 3.555 | 3.229
x1 = 0.4005 | 1016.59 | 1013.11 | 1009.64 | 1006.18 | 1002.74 | 9.129 | 8 | 7.037 | 6.242 | 5.584
x1 = 0.5015 | 1039.93 | 1036.55 | 1033.17 | 1029.82 | 1026.48 | 14.79 | 12.8 | 11.16 | 9.779 | 8.66
x1 = 0.6507 | 1065.48 | 1062.21 | 1058.95 | 1055.7 | 1052.47 | 28.64 | 24.08 | 20.59 | 17.77 | 15.5
x1 = 0.8007 | 1085.18 | 1081.98 | 1078.78 | 1075.61 | 1072.46 | 51.33 | 42.07 | 35.23 | 29.65 | 25.41
x1 = 0.9007 | 1096.21 | 1093.04 | 1089.88 | 1086.74 | 1083.63 | 77.73 | 64.34 | 53.02 | 44.24 | 37.21
x1 = 1 | 1104.68 | 1101.52 | 1098.38 | 1095.26 | 1092.17 | 111.35 | 89.95 | 73.04 | 60.25 | 50.12

CCCC[NH3+].O=[N+]([O-])[O-] [n-butylammonium nitrate] + CCO
Details | mass density, 293.15 K [kg/m3] | mass density, 298.15 K [kg/m3] | mass density, 303.15 K [kg/m3] | mass density, 308.15 K [kg/m3] | mass density, 313.15 K [kg/m3] | viscosity, 293.15 K [mPa·s] | viscosity, 298.15 K [mPa·s] | viscosity, 303.15 K [mPa·s] | viscosity, 308.15 K [mPa·s] | viscosity, 313.15 K [mPa·s]
x1 = 0.0995 | 858.45 | 854.53 | 850.59 | 846.63 | 842.66 | 2.5 | 2.251 | 2.036 | 1.846 | 1.682
x1 = 0.1997 | 910.07 | 906.36 | 902.64 | 898.9 | 895.16 | 4.379 | 3.895 | 3.486 | 3.134 | 2.827
x1 = 0.2999 | 951.56 | 947.99 | 944.41 | 940.85 | 937.28 | 7.388 | 6.633 | 5.868 | 5.192 | 4.591
x1 = 0.3998 | 985.07 | 981.61 | 978.16 | 974.71 | 971.27 | 12.29 | 10.67 | 9.285 | 8.205 | 7.25
x1 = 0.5005 | 1012.9 | 1009.57 | 1006.2 | 1003.2 | 999.76 | 18.53 | 15.89 | 13.78 | 12.04 | 10.57
x1 = 0.6501 | 1047.63 | 1044.37 | 1041.1 | 1037.86 | 1034.62 | 32.66 | 27.42 | 23.15 | 19.83 | 17.12
x1 = 0.8003 | 1075.57 | 1072.36 | 1069.17 | 1066 | 1062.84 | 56.97 | 46.57 | 38.82 | 32.55 | 27.74
x1 = 0.8989 | 1090.94 | 1087.76 | 1084.6 | 1081.46 | 1078.34 | 79.51 | 65.34 | 53.93 | 44.86 | 37.86
x1 = 1 | 1104.68 | 1101.52 | 1098.38 | 1095.26 | 1092.17 | 111.35 | 89.95 | 73.04 | 60.25 | 50.12
